pIC50: −log10 of the molar value.
How the values were obtained:
[1] = test system: HCV replicon (5-2 Luc replicon-comprising cells); assay: HCV replicon assay (luciferase); assay type: cell-based; settings: 5-2 Luc replicon cells, 24 hours with compound; read-out: Replicon IC50 (50% reduction in luciferase activity)
Text: In one embodiment, the inhibitory activity of the compounds can be confirmed in a replicon assay that assesses the ability of a test compound to block or inhibit HCV replication in replicon cells. One example of a suitable replicon assay is the liver cell-line Huh 7-based replicon assay described in Lohmann et al., 1999, Science 285:110-113. A specific example of this replicon assay which utilizes luciferase translation is provided in the Examples Section. In one embodiment of this assay, the amount of test compound that yields a 50% reduction in translation as compared to a control cell (IC50) may be determined.
The inhibitory activity of certain exemplary compounds of the invention was confirmed using an HCV replicon assay. The HCV replicon can include such features as the HCV 5′ untranslated region including the HCV IRES, the HCV 3′ untranslated region, selected HCV genes encoding HCV polypeptides, selectable markers, and a reporter gene such as luciferase, GFP, etc. In the assay, actively dividing 5-2 Luc replicon-comprising cells (obtained from Ralf Bartenschlager; see Lohmann et al., 1999, Science 285:110-113) were seeded ata density of between about 5,000 and 7,500 cells/well onto 96 well plates (about 90 μl of cells per well) and incubated at 37° C. and 5% CO2 for 24 hours. Then, the test compound (in a volume of about 10 μl) was added to the wells at various concentrations and the cells were incubated for an additional 24 hours before luciferase assay. Briefly, the Bright-Glo reagent was diluted 1:1 with PBS and 100 μl of diluted reagent was added to each well. After 5 min of incubation at room temperature, luciferin emission was quantified with a luminometer. In this assay, the amount of test compound that yielded a 50% reduction in luciferase activity (IC50) was determined.

[2] = test system: HCV nonstructural protein NS5A or NS3; assay: Quantitative Western blot assay in 9-13 replicon cells; assay type: cell-based; settings: second symbol of column Replicon/Western, 48 hours with compound, read-out: Western IC50 (50% reduction in the amount of NS5A or NS3 protein)
Protocol: Alternatively, the inhibitory activity of the compounds can be confirmed using a quantitative Western immunoblot assay utilizing antibodies specific for HCV non-structural proteins, such as NS3, NS4A NS5A and NS5B. In one embodiment of this assay, replicon cells are treated with varying concentrations of test compound to determine the concentration of test compound that yields a 50% reduction in the amount of a non-structural protein produced as compared to a control sample (IC50). A single non-structural protein may be quantified or multiple non-structural proteins may be quantified. Antibodies suitable for carrying out such immunoblot assays are available commercially (e.g., from BIODESIGN International, Saco, Me.).
Certain exemplary compounds of the invention were also tested for their ability to inhibit HCV replication using a quantitative Western blot analysis with antibodies specific for the HCV nonstructural protein NS5A or NS3. Actively dividing 9-13 replicon cells were seeded into 6-well plates at a density of 1×10^5 cells/well in a volume of 2 ml/well and incubated at 37° C. and 5% CO2 for 24 hours. Various concentrations of test compounds (in a volume of 10 ul) were added to the wells and the cells incubated for another 48 hours. […] The membrane was then soaked in substrate solution (Pierce) and exposed to a film or quantified using an imager. […]

**Q.** How did the pIC50 [1] turn out when `Clc1cccc(Cl)c1-c1cc(-c2ccnc(-c3noc(C(Cl)Cl)n3)c2)on1` [(Ia) R2=Cl, R6=Cl, 5-Dichloromethyl-3-[4-[3′-(2′,6′-dichlorophenyl)-5′-isoxazolyl]-4-pyridyl]-1,2,4-oxadiazole] was run?
**A.** The pIC50 was less than 5.00.

**Q.** `Clc1cc(-c2cc(-c3c(Cl)cccc3Cl)no2)ccc1-c1noc(C(Cl)Cl)n1` [(III) R2=Cl, R6=Cl, R8=Cl, 5-Dichloromethyl-3-[4-[3′-(2′,6′-dichlorophenyl)-5′-isoxazolyl]-2-chlorophenyl]-1,2,4-oxadiazole] was tested. Which pIC50 [1] did it give?
**A.** The pIC50 was less than 5.00.

**Q.** With `COc1cccc(C(F)(F)F)c1-c1cc(-c2cccc(-c3noc(C(Cl)Cl)n3)c2)on1` [(I) R2=CF3, R6=OMe, 5-Dichloromethyl-3-[3-[3′-(2′-methoxy-6′-trifluoromethylphenyl)-5′-isoxazolyl]phenyl]-1,2,4-oxadiazole] as the compound, how does the pIC50 [1] read?
**A.** The pIC50 was less than 5.00.

**Q.** Which results are given for `Clc1cccc(Cl)c1-c1cc(-c2cccc(-c3noc(C(Cl)Cl)n3)c2)on1` [(I) R2=Cl, R6=Cl, 5-Dichloromethyl-3-[3-[3′-(2′,6′-dichlorophenyl)-5′-isoxazolyl]phenyl]-1,2,4-oxadiazole]?
**A.** pIC50 [1]: ≥ 5.00; pIC50 [2]: ≥ 5.00

**Q.** With `Clc1cccc(Cl)c1-c1cc(-c2ccc(-c3noc(C(Cl)Cl)n3)cc2)on1` [(III) R2=Cl, R6=Cl, 5-Dichloromethyl-3-[4-[3′-(2′,6′-dichlorophenyl)-5′-isoxazolyl]phenyl]-1,2,4-oxadiazole] as the compound, how does the pIC50 [1] read?
**A.** Its pIC50 is no less than 5.00.

**Q.** How did the pIC50 [1] turn out when `Fc1cc(-c2cc(-c3c(Cl)cccc3Cl)no2)ccc1-c1noc(C(Cl)Cl)n1` [(I) R2=Cl, R6=Cl, R8=F, 5-Dichloromethyl-3-[4-[3′-(2′,6′-dichlorophenyl)-5′-isoxazolyl]-6-fluorophenyl]-1,2,4-oxadiazole] was run?
**A.** Its pIC50 is no less than 5.00.

**Q.** How did the pIC50 [1] turn out when `Clc1cccc(Cl)c1-c1cc(-c2ccccc2-c2noc(C(Cl)Cl)n2)on1` [(II) R2=Cl, R6=Cl, 5-Dichloromethyl-3-[2-[3′-(2′,6′-dichlorophenyl)-5′-isoxazolyl]phenyl]-1,2,4-oxadiazole] was run?
**A.** Its pIC50 is no less than 5.00.

**Q.** How did the pIC50 [1] turn out when `Fc1cccc(C(F)(F)F)c1-c1cc(-c2ccc(-c3noc(C(Cl)Cl)n3)cc2)on1` [(III) R2=CF3, R6=F, 5-Dichloromethyl-3-[4-[3′-(2′-fluoro-6′-trifluoromethylphenyl)-5′-isoxazolyl]phenyl]-1,2,4-oxadiazole] was run?
**A.** Its pIC50 is no less than 5.00.

**Q.** How did the pIC50 [1] turn out when `COc1cccc(C(F)(F)F)c1-c1cc(-c2ccc(-c3noc(C(Cl)Cl)n3)cc2)on1` [(III) R2=CF3, R6=OMe, 5-Dichloromethyl-3-[4-[3′-(2′-methoxy-6′-trifluoromethylphenyl)-5′-isoxazolyl]phenyl]-1,2,4-oxadiazole] was run?
**A.** Its pIC50 is no less than 5.00.

**Q.** How did the pIC50 [1] turn out when `CC(=O)N1CCN(c2cccc(Cl)c2-c2cc(-c3ccc(-c4noc(C(Cl)Cl)n4)c(Cl)c3)on2)CC1` [5-Dichloromethyl-3-[4-[3′-[2′-chloro-6′-(N-acetyl-4-piperazinyl)phenyl]-5′-isoxazolyl]-2-chlorophenyl]-1,2,4-oxadiazole] was run?
**A.** The pIC50 was less than 5.00.

**Q.** `CC(=O)N1CCN(c2cccc(Cl)c2-c2cc(-c3ccc(-c4noc(C(Cl)Cl)n4)c(F)c3)on2)CC1` [5-Dichloromethyl-3-[4-[3′-[2′-chloro-6′-(N-acetyl-4-piperazinyl)phenyl]-5′-isoxazolyl]-2-fluorophenyl]-1,2,4-oxadiazole] was tested. Which pIC50 [1] did it give?
**A.** Its pIC50 is no less than 5.00.

**Q.** How did the pIC50 [1] turn out when `Cc1cc(-c2noc(C(Cl)Cl)n2)ccc1-c1cc(-c2c(Cl)cccc2Cl)no1` [(III) R2=Cl, R6=Cl, R10=Me, 5-Dichloromethyl-3-[4-[3′-(2′,6′-dichlorophenyl)-5′-isoxazolyl]-3-methylphenyl]-1,2,4-oxadiazole] was run?
**A.** Its pIC50 is no less than 5.00.

**Q.** How did the pIC50 [1] turn out when `Fc1cccc(Cl)c1-c1cc(-c2ccc(-c3noc(C(Cl)Cl)n3)cc2)on1` [(III) R2=Cl, R6=F, 5-Dichloromethyl-3-[4-[3′-(2′-chloro-6′-fluorophenyl)-5′-isoxazolyl]phenyl]-1,2,4-oxadiazole] was run?
**A.** Its pIC50 is no less than 5.00.
